Experimental data as given in ChEMBL document CHEMBL1667829, “Analysis of β-amino alcohols as inhibitors of the potential anti-tubercular target N-acetyltransferase” (Bioorg Med Chem Lett, 2011).
Calls of active or inactive are those of the source. The calls are words filed in the database; no cut-off is given here.

Legend:
Mycobacterium marinum [1] = test: Inhibition of Mycobacterium marinum NAT using isoniazed substrate at 30 uM by acetyl-coA hydrolysis assay
[2] = system: Mycobacterium tuberculosis; test: Antimicrobial activity against Mycobacterium tuberculosis at 50 ug/ml relative to control; type: functional
[3] = target: T1, Arylamine N-acetyltransferase (Pseudomonas aeruginosa (strain ATCC 15692 / PAO1 / 1C / PRS 101 / LMG12228), UniProt Q9HUY3); test: Inhibition of Pseudomonas aeruginosa NAT using isoniazed substrate by acetyl-coA hydrolysis assay
T1 sequence (Q9HUY3 whole entry): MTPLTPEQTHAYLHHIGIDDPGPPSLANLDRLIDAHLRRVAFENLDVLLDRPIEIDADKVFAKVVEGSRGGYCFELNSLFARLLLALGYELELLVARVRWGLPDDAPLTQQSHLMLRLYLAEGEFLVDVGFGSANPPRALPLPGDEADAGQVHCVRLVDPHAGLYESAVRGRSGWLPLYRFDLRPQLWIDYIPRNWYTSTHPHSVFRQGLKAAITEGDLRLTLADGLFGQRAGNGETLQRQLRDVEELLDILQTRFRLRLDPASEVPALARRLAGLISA

[4] = Inhibition of Mycobacterium marinum NAT using 5-aminosalicylate substrate by acetyl-coA hydrolysis assay
[5] = target: T1, Arylamine N-acetyltransferase; test: Inhibition of Pseudomonas aeruginosa NAT using 5-aminosalicylate substrate by acetyl-coA hydrolysis assay
[6] = target: T2, Arylamine N-acetyltransferase (Mycolicibacterium smegmatis, UniProt O86309); test: Inhibition of Mycobacterium smegmatis NAT using 5-aminosalicylate substrate by acetyl-coA hydrolysis assay
T2 sequence (O86309 whole entry): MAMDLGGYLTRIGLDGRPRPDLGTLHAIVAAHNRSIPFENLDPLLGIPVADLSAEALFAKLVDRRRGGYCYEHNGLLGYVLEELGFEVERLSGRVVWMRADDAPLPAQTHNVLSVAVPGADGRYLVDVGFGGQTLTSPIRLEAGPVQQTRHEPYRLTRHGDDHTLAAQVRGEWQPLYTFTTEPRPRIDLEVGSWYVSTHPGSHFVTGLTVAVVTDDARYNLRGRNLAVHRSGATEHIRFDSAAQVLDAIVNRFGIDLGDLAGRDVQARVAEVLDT

[7] = target: T2, Arylamine N-acetyltransferase; test: Inhibition of Mycobacterium smegmatis NAT using isoniazed substrate by acetyl-coA hydrolysis assay
[8] = Inhibition of Mycobacterium marinum NAT using hydralazine substrate by acetyl-coA hydrolysis assay
Mycobacterium marinum [9] = test: Antimicrobial activity against Mycobacterium marinum at 100 ug/ml; type: functional, organism-based
Mycobacterium marinum [10] = test: Antimicrobial activity against Mycobacterium marinum at 80 ug/ml; type: functional, organism-based
[11] = Inhibition of Mycobacterium marinum NAT using isoniazed substrate by acetyl-coA hydrolysis assay

SMILES: CC1(C)NC(=O)N(CC(O)COc2ccccc2F)C1=O (configuration not stated)
- inhibition (Mycobacterium marinum [1]): 0%

SMILES: CC1(C)NC(=O)N(CC(O)COc2cccc(-c3ccccc3)c2)C1=O (configuration not stated)
- inhibition (Mycobacterium marinum [1]): 6%

SMILES: CC1(C)NC(=O)N(CC(O)COc2ccccc2C2CCCC2)C1=O (configuration not stated)
- inhibition (Mycobacterium marinum [1]): 58%
- inhibition at 50 µg/mL [2]: 20%
- IC50 [3]: 37 µM
- IC50 [4]: 33.1 µM
- IC50 [5]: 16.2 µM
- IC50 [6]: 17.7 µM
- IC50 [7]: 9.4 µM
- IC50 [8]: 1.5 µM

SMILES: CC1(C)NC(=O)N(CC(O)COc2ccccc2[N+](=O)[O-])C1=O (configuration not stated)
- inhibition (Mycobacterium marinum [1]): 4%

SMILES: CC1(C)NC(=O)N(CC(O)COc2ccc(-c3ccccc3)cc2)C1=O (configuration not stated)
- inhibition (Mycobacterium marinum [1]): 8%

SMILES: CC1(C)NC(=O)N(CC(O)COc2ccccc2-c2ccccc2)C1=O (configuration not stated)
- inhibition (Mycobacterium marinum [1]): 24%

SMILES: O=C1CNC(=O)N1CC(O)COc1ccccc1 (configuration not stated)
- inhibition (Mycobacterium marinum [1]): 0%

SMILES: CC1(C)NC(=O)N(CC(O)COc2ccccc2-c2cccc3ccccc23)C1=O (configuration not stated)
- inhibition (Mycobacterium marinum [1]): 28%

SMILES: O=C1NC(c2ccccc2)C(=O)N1CC(O)COc1ccccc1 (configuration not stated)
- inhibition (Mycobacterium marinum [1]): 0%

SMILES: Cc1ccccc1OCC(O)CN1C(=O)NC(C)(C)C1=O (configuration not stated)
- inhibition (Mycobacterium marinum [1]): 0.5%

SMILES: CC1(C)NC(=O)N(CC(O)COc2ccccc2Br)C1=O (configuration not stated)
- inhibition (Mycobacterium marinum [1]): 24%

SMILES: CC1(C)NC(=O)N(CC(O)COc2ccc(C3CCCC3)cc2)C1=O (configuration not stated)
- inhibition (Mycobacterium marinum [1]): 0%
- IC50 [3]: > 50 µM
- IC50 [4]: > 50 µM
- IC50 [5]: > 50 µM
- IC50 [6]: > 50 µM
- Activity (Mycobacterium marinum [9]): inactive
- IC50 [7]: > 50 µM
- Activity (Mycobacterium marinum [10]): inactive
- IC50 [11]: > 50 µM
